Laboratory results: patent publication US20060141486A1, “Porous substrates and arrays comprising the same” (priority 2004, published 2006)

Tests used:
Test in all cases: GPCR array binding assay on flow-through microplate with GAPS porous substrate
[1] = biological target: T1, human muscarinic receptor subtype 1 (M1) (Homo sapiens, UniProt P11229)
T1 sequence (P11229 1-460): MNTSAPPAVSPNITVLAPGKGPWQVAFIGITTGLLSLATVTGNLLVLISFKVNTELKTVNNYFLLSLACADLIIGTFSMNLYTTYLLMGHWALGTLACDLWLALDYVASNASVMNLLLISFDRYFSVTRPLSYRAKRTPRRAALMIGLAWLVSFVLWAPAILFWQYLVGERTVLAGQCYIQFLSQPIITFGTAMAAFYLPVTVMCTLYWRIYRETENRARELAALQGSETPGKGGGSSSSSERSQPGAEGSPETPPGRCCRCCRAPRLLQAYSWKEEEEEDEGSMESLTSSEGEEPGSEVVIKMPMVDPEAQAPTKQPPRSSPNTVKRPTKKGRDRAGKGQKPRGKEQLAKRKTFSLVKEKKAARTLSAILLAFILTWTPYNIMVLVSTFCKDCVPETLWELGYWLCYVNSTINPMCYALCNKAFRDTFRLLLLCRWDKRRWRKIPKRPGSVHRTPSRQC
Protocol: (§1) 96 patches of silica-based porous substrate (GAPS™, Corning Inc.) were screen printed onto a 1737 glass support plate, and sintered at 695° C. The glass support was pre-fabricated by sand blasting to generate 192 microchannels. Under each porous patch, there are two microchannels which provide access to the porous patch from the opposite side of the glass support. Human muscarinic receptor subtype 1 (M1), delta opioid receptor subtype 2 (delta2), and muscarinic receptor subtype 2 (M2) were printed onto the GAPS™-porous substrate with a configuration such that each receptor was aligned in one column with four replicates (i.e., columns 1, 2 and 3 for M1, delta2 and M2 receptors, respectively; see FIG. 4A). […] After one hour incubation, a vacuum force was applied to remove the assay solution and the sequential washing solution before the array was finally being dried.

[2] = biological target: T2, human muscarinic receptor subtype 2 (M2) (Homo sapiens, UniProt P08172)
T2 sequence (P08172 1-466): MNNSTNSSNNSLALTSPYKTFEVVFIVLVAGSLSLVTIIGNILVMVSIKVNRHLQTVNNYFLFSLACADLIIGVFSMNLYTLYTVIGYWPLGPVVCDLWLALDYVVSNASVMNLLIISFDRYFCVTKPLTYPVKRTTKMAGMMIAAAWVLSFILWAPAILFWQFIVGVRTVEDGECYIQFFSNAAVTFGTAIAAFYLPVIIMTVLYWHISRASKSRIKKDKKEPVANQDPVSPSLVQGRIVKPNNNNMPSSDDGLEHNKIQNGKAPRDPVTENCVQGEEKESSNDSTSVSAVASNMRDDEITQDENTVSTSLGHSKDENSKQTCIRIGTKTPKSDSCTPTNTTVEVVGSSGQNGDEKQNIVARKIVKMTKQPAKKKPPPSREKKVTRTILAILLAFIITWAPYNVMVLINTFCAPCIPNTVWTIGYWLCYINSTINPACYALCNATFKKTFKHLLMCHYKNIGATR
Protocol: as §1

[3] = biological target: human delta opioid receptor subtype 2 (delta2) (Homo sapiens, UniProt P41143); details: 4 nM Cy5-naltrexone in cocktail of labeled ligands, one hour incubation, FIG. 4A
Chain of human delta opioid receptor subtype 2 (delta2) (P41143 whole entry): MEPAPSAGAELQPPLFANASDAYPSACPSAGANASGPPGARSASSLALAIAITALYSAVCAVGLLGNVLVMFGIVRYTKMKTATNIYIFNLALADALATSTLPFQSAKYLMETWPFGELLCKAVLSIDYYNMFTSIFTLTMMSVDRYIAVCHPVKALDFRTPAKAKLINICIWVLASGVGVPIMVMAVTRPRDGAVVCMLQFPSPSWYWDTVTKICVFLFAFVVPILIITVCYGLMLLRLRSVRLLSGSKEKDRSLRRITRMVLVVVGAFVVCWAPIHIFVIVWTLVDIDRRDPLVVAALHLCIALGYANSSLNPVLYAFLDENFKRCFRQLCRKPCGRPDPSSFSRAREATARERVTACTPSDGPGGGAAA
Protocol: as §1

[4] = unlabeled telenzepine 2 μM (with naltrexone 4 μM), FIG. 4B
[5] = 2 nM Cy3B-telenzepine in cocktail of labeled ligands, one hour incubation, FIG. 4A

Cc1scc2c1N(C(=O)CN1CCN(C)CC1)c1ccccc1NC2=O [telenzepine]
inhibition of Cy3B-telenzepine binding to M1 receptor by unlabeled compound [1, 4]: inhibited | inhibition of Cy3B-telenzepine binding to M2 receptor by unlabeled compound [2, 4]: inhibited

Cy3B-telenzepine
binding of labeled ligand to M1 receptor microspots (fluorescence) [1, 5]: strong binding | binding of labeled ligand to M2 receptor microspots (fluorescence) [2, 5]: Weak binding signals

Cy5-naltrexone
binding of labeled ligand to delta2 receptor microspots (fluorescence) [3]: strong binding
